Results on eleven compounds are retold here after ChEMBL document CHEMBL3769389, “Development of a potent 2-oxoamide inhibitor of secreted phospholipase A2 guided by molecular docking calculations and molecular dynamics simulations” (Bioorg Med Chem, 2016).

Each structure is given as a SMILES string.

Experiment [1] addresses T1, Phospholipase A2, membrane associated (Homo sapiens) (UniProt P14555).
T1 sequence (whole entry): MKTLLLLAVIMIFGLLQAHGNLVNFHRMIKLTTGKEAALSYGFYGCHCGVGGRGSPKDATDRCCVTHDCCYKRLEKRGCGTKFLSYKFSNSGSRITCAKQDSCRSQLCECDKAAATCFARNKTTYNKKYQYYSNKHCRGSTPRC
Kind of experiment: Inhibition of human group 2A secreted phospholipase A2 at 1 uM by fluorescence assay.

Experiment [2] concerns the target T2, Phospholipase A2, membrane associated (Mus musculus) (UniProt P31482).
T2 sequence (whole entry): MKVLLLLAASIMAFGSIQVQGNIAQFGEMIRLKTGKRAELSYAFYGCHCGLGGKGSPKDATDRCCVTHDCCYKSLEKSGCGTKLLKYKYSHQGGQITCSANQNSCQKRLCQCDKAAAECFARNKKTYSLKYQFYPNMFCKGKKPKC
In words: Inhibition of mouse group 2A secreted phospholipase A2 at 1 uM by fluorescence assay.

For experiment [3], the target named is T1, Phospholipase A2, membrane associated (Homo sapiens). Kind of experiment: Inhibition of human group 2A secreted phospholipase A2 at 10 uM by fluorescence assay.
For experiment [4], the target named is Phospholipase A2 (Homo sapiens) (UniProt P04054). In words: Inhibition of human group 1B secreted phospholipase A2 at 10 uM by fluorescence assay.
The target in experiment [5] is T3, Phospholipase A2 group V (Homo sapiens) (UniProt P39877).
T3 sequence (whole entry): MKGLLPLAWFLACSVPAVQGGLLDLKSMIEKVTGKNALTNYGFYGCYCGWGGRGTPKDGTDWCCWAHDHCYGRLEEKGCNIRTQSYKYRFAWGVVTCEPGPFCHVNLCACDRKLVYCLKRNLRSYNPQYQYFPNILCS
Kind of experiment: Inhibition of human group 5 secreted phospholipase A2 at 10 uM by fluorescence assay.

For experiment [6], the target named is T4, Group 10 secretory phospholipase A2 (Homo sapiens) (UniProt O15496).
T4 sequence (whole entry): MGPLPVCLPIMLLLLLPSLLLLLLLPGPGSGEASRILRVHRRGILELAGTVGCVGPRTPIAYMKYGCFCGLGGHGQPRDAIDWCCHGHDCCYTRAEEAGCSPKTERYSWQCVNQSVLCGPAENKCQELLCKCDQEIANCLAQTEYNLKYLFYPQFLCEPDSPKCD
Kind of experiment: Inhibition of human group 10 secreted phospholipase A2 at 10 uM by fluorescence assay.

Experiment [7] deals with T5, Phospholipase A2, membrane associated (Homo sapiens, UniProt P14555).
T5 sequence (P14555 whole entry): T1 sequence (whole entry)
In words: Inhibition of human group 2A secreted phospholipase A2 by fluorescence assay.

The target in experiment [8] is T6, Phospholipase A2 group V (Homo sapiens, UniProt P39877).
T6 sequence (P39877 whole entry): T3 sequence (whole entry)
In words: Inhibition of human group 5 secreted phospholipase A2 by fluorescence assay.

The target of experiment [9] is T7, Phospholipase A2, membrane associated (Mus musculus, UniProt P31482).
T7 sequence (P31482 whole entry): T2 sequence (whole entry)
In words: Inhibition of mouse group 2A secreted phospholipase A2 by fluorescence assay.

Experiment [10] concerns the target T4, Group 10 secretory phospholipase A2 (Homo sapiens). In words: Inhibition of human group 10 secreted phospholipase A2 assessed as remaining activity at 1000 nM by fluorescence assay.
For experiment [11], the target named is Phospholipase A2 (Homo sapiens) (UniProt P04054). Kind of experiment: Inhibition of human group 1B secreted phospholipase A2 assessed as remaining activity at 1000 nM by fluorescence assay.
The target in experiment [12] is T8, Group IIE secretory phospholipase A2 (Homo sapiens) (UniProt Q9NZK7).
T8 sequence (whole entry): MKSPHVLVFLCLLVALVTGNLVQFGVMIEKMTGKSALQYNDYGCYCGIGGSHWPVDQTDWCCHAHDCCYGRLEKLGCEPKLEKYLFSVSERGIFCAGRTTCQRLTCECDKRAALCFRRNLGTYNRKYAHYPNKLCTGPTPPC
Kind of experiment: Inhibition of human group 2E secreted phospholipase A2 assessed as remaining activity at 1000 nM by fluorescence assay.

Experiment [13] deals with T9, Group IIF secretory phospholipase A2 (Homo sapiens) (UniProt Q9BZM2).
T9 sequence (whole entry): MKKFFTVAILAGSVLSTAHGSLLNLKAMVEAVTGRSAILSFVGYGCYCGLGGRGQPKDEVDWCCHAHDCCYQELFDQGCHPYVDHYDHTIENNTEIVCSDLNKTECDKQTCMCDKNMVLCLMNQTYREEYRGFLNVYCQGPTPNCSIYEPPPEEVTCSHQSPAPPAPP
Kind of experiment: Inhibition of human group 2F secreted phospholipase A2 assessed as remaining activity at 1000 nM by fluorescence assay.

Experiment [14] has as its target T10, Group 10 secretory phospholipase A2 (Mus musculus) (UniProt Q9QXX3).
T10 sequence (whole entry): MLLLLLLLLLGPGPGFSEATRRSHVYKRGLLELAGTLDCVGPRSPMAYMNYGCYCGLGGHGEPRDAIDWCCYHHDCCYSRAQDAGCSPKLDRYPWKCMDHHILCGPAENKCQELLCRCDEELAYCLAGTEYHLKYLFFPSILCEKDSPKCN
Kind of experiment: Inhibition of mouse group 10 secreted phospholipase A2 assessed as remaining activity at 1000 nM by fluorescence assay.

Experiment [15] addresses T11, Group IID secretory phospholipase A2 (Mus musculus) (UniProt Q9WVF6).
T11 sequence (whole entry): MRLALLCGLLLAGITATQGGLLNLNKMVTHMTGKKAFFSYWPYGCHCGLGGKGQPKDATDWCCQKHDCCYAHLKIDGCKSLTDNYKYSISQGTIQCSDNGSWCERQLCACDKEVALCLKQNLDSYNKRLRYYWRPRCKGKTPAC
In words: Inhibition of mouse 2D secreted phospholipase A2 assessed as remaining activity at 1000 nM by fluorescence assay.

Experiment [16] has as its target T12, Phospholipase A2 group V (Mus musculus) (UniProt P97391).
T12 sequence (whole entry): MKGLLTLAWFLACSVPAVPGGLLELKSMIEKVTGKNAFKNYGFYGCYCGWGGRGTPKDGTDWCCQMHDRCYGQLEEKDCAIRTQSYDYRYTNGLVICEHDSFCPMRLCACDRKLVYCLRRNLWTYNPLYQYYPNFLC
In words: Inhibition of mouse group 5 secreted phospholipase A2 assessed as remaining activity at 1000 nM by fluorescence assay.

Experiment [17] is filed under the species Homo sapiens. Kind of experiment: Selectivity ratio of IC50 for human group 5 secreted phospholipase A2 to human group 2A secreted phospholipase A2.
For experiment [18], the target named is T1, Phospholipase A2, membrane associated (Homo sapiens). Kind of experiment: Potency index, ratio of GK126 IC50 to compound IC50 for human group 2A secreted phospholipase A2.
Experiment [19] deals with T2, Phospholipase A2, membrane associated (Mus musculus). In words: Potency index, ratio of GK126 IC50 to compound IC50 for mouse group 2A secreted phospholipase A2.

The inhibition is how much of the control response was suppressed. Low readings indicate a weak effect, high ones a strong effect. A word on the IC50: it is the concentration at which inhibition is half-maximal.

Chain of Phospholipase A2 (Homo sapiens) (P04054 23-148 limits assumed): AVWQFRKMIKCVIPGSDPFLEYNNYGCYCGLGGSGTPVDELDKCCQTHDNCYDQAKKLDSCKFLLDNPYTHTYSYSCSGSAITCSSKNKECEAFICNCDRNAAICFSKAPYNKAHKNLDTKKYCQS

In the case of `CCCCCCCCCCCCCCC(=O)C(=O)NC(C)(C)C(=O)O`, the inhibition in experiment [1] and in experiment [2] was under 25% each time.

As to `CC(C)[C@H](NC(=O)C(=O)CCCCc1ccc2ccccc2c1)C(=O)O`, the inhibition was determined as 27% in experiment [3], 20% in experiment [4], 26% in experiment [5] and 51% in experiment [6].

In the case of `CC(C)[C@H](NC(=O)C(=O)CCCCc1ccccc1)C(=O)O`, the inhibition in experiment [3] was 11%; in [4], 56%; in [5], 40%; in [6] it was 40%.

Take `CCCCCCCCCCCCCCC(=O)C(=O)N1CCC[C@H]1C(=O)O`: the inhibition in experiment [1] and in experiment [2] was under 25% throughout.

On to `CCCCCCCCCCCCCCC(=O)C(=O)N[C@@H](C)C(=O)O`, for which the inhibition in experiment [1] and in experiment [2] was under 25% in each case.

With `CCCCCCCCCCCCCCC(=O)C(=O)N[C@@H](CCC(=O)O)C(=O)OCC`, the inhibition in experiment [1] and in experiment [2] was under 25% in each case.

As for `CC(C)[C@H](NC(=O)C(=O)c1ccc2ccccc2c1)C(=O)O`, the inhibition in experiment [3] was found to be 50%; in [4], 50%; in [5], 53%; in experiment [6] it was 56%.

For the compound `CC(C)[C@H](NC(=O)C(=O)CCCCc1ccc(-c2ccccc2)cc1)C(=O)O`, the inhibition in experiment [3] worked out at 21%; in experiment [4], 30%; in [5], 50%; in experiment [6] it was 54%.

`CCCCCCCCCCCCCCC(=O)C(=O)N[C@H](C(=O)O)C(C)(C)C`: the inhibition in experiment [1] and in [2] was under 25% each time.

For `CCCCCCCCCCCCCCC(=O)C(=O)N[C@H](C(=O)O)C(C)C`, the IC50 was 143 nM in experiment [7], 1200 nM in experiment [8] and 68 nM in [9]. For the same compound, the Activity in experiment [10] was determined as 95%; in experiment [11], 98%; in [12], 93%; in [13], 94%; in [14], 98%; in experiment [15], 99%. Besides, the Activity in experiment [16] came to 90%. Also, the results for the Ratio IC50 in experiment [17], in experiment [18] and in [19] were 10, 2 and 2, respectively.

Take `CCCCCCCCCCCCCCC(=O)C(=O)N[C@@H](CCC(=O)O)C(=O)O`: the inhibition in [1] and in [2] was under 25% throughout.
